From patent US12336981B2, “Compounds and compositions for the inhibition of NAMPT” (Valo Health, Inc., priority 2010, dated 2025)
Like-named read-outs stand apart in the source and are kept apart here.

Legend:
NAMPT = molecular target: T1, NAMPT (Homo sapiens, UniProt P43490); test: Biochemical inhibition assay: NAMPT enzymatic reaction, NMN quantified by mass spectrometry; conditions: read-out: Biochem IC50
T1 construct: His tag; host or cells: E. coli
Method in brief: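 Inhibition of E. coli-expressed His-tagged human NAMPT, measured as NMN formation by mass spectrometry after a 30 min room-temperature reaction containing 1 μM NAM, 100 μM PRPP and 2.5 mM ATP.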

A2780 cells = test: In-vitro cell proliferation assay (SRB), A2780 cells; assay type: cell-based; conditions: Homo sapiens, A2780, 72 h, A2780 cells, 72 hours, read-out: A2780 IC50
Method in brief: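 Proliferation is assessed by sulforhodamine B staining following a 72-hour incubation with compound dilutions containing 0.1% DMSO.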

T1 sequence (P43490 whole entry): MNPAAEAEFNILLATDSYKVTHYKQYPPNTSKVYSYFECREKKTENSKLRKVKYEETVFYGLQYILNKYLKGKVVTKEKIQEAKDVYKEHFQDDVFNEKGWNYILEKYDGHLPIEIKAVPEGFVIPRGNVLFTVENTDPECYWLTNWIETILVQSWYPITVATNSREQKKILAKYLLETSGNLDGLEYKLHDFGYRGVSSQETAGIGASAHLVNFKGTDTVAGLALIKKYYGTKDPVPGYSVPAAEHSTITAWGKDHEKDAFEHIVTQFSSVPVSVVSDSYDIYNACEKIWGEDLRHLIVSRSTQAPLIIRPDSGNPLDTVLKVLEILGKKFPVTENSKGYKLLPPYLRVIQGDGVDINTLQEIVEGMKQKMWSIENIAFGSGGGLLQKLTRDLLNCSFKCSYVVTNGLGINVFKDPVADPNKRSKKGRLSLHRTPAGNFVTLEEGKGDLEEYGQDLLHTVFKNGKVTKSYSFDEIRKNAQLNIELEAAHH

SMILES | IC50 (NAMPT; NAMPT enzymatic reaction) [nM] | IC50 (A2780 cells; SRB assay) [nM] | IC50 (A2780 cells; SRB) [nM] | IC50 (NAMPT; NAMPT enzymatic assay) [nM]
COc1ccc(Cl)cc1S(=O)(=O)c1ccc(CNC(=O)c2cc3ccncc3s2)cc1 [N-({4-[(5-chloro-2-methoxybenzene)sulfonyl]phenyl}methyl)thieno[2,3-c]pyridine-2-carboxamide] | 4 | 1.3 |  | 
O=C(NCc1ccc(S(=O)(=O)c2cccc(Cl)c2F)cc1)c1cnc2nccn2c1 | 2.4 |  | 17.6 | 
COc1ccc(C)cc1S(=O)(=O)c1ccc(CNC(=O)c2cc3cnccc3[nH]2)cc1 [N-({4-[(2-methoxy-5-methylbenzene)sulfonyl]phenyl}methyl)-1H-pyrrolo[3,2-c]pyridine-2-carboxamide] | 12 | 3 |  | 
CCCOc1ccccc1NS(=O)(=O)c1ccc(CNC(=O)c2cc3cnccc3[nH]2)cc1 [N-({4-[(2-propoxyphenyl)sulfamoyl]phenyl}methyl)-1H-pyrrolo[3,2-c]pyridine-2-carboxamide] | 52 | 100 |  | 
O=C(NCc1ccc(S(=O)(=O)c2cccc(N3CCCCC3)c2)cc1)c1cc2ccncc2o1 [N-[(4-{[3-(piperidin-1-yl)benzene]sulfonyl}phenyl)methyl]furo[2,3-c]pyridine-2-carboxamide] |  |  | 12.7 | 11.3
O=C(NCc1ccc(S(=O)(=O)c2ccc(C(F)(F)F)cc2C(F)(F)F)cc1)c1ccc2nccn2c1 |  |  | 53.2 | 220
COc1ccc(S(=O)(=O)c2ccc(CNC(=O)c3cnc4[nH]ncc4c3)cc2)cc1Cl | 4 |  | 3.6 | 
O=C(NCc1ccc(S(=O)(=O)c2cccc(C(=O)NC3CCCC3)c2)cc1)c1cnc2[nH]ncc2c1 [N-[(4-{[3-(cyclopentylcarbamoyl)benzene]sulfonyl}phenyl)methyl]-1H-pyrazolo[3,4-b]pyridine-5-carboxamide] |  |  | 33 | 33.3
O=C(NCc1ccc(S(=O)(=O)c2ccc(Cn3ccnc3)cc2)cc1)c1cc2ccncc2s1 |  |  | 12.2 | 5.3
COc1ccc(S(=O)(=O)c2ccc(CNC(=O)c3cc4ccncc4o3)cc2)nc1 [N-{[4-(5-methoxypyridine-2-sulfonyl)phenyl]methyl}furo[2,3-c]pyridine-2-carboxamide] |  |  | 31.6 | 7.9
Cn1c(S(=O)(=O)c2ccc(CNC(=O)c3cc4ccncc4s3)cc2)cc2ccccc21 [N-{[4-(1-methyl-1H-indole-2-sulfonyl)phenyl]methyl}thieno[2,3-c]pyridine-2-carboxamide] |  |  | 3.4 | 5.2
Cc1cc(Cl)ccc1S(=O)(=O)c1ccc(CNC(=O)c2cnc3nccn3c2)cc1 | 6.6 |  | 53.9 | 
Nc1ccc(C(=O)NCc2ccc(S(=O)(=O)c3cc(F)cc(F)c3)cc2)cn1 [6-amino-N-({4-[(3,5-difluorobenzene)sulfonyl]phenyl}methyl)pyridine-3-carboxamide] | 14.2 |  | 275 | 
Cc1ccncc1S(=O)(=O)c1ccc(CNC(=O)c2ccc3nccn3c2)cc1 [N-{[4-(4-methylpyridine-3-sulfonyl)phenyl]methyl}imidazo[1,2-a]pyridine-6-carboxamide] |  |  | 65.8 | 66.5
Cn1ncc2cccc(S(=O)(=O)c3ccc(CNC(=O)c4cc5ccncc5o4)cc3)c21 [N-{[4-(1-methyl-1H-indazole-7-sulfonyl)phenyl]methyl}furo[2,3-c]pyridine-2-carboxamide] |  |  | 27.5 | 11.5
CCCOc1cccc(F)c1S(=O)(=O)c1ccc(CNC(=O)c2cc3ccncc3o2)cc1 | 13.3 |  | 14.2 | 
O=C(NCc1ccc(S(=O)(=O)c2ccc3nc(C(F)(F)F)cn3c2)cc1)c1ccc2nccn2c1 [N-({4-[2-(trifluoromethyl)imidazo[1,2-a]pyridine-6-sulfonyl]phenyl}methyl)imidazo[1,2-a]pyridine-6-carboxamide] |  |  | 7 | 36.2
O=C(NCc1ccc(S(=O)(=O)c2cc(C(F)(F)F)ccc2OCc2ccccc2)cc1)c1cnc2[nH]ncc2c1 [N-[(4-{[2-(benzyloxy)-5-(trifluoromethyl)benzene]sulfonyl}phenyl)methyl]-1H-pyrazolo[3,4-b]pyridine-5-carboxamide] |  |  | 100 to 1000 | 100 to 1000
Cc1ccc(Cl)c(S(=O)(=O)c2ccc(CNC(=O)c3cnc4[nH]ncc4c3)cc2)c1F [N-({4-[(6-chloro-2-fluoro-3-methylbenzene)sulfonyl]phenyl}methyl)-1H-pyrazolo[3,4-b]pyridine-5-carboxamide] |  |  | 100 to 1000 | 112
O=C(NCc1ccc(S(=O)(=O)c2cncc3ccccc23)cc1)c1cc2ccncc2s1 [N-{[4-(isoquinoline-4-sulfonyl)phenyl]methyl}thieno[2,3-c]pyridine-2-carboxamide] | 3 | 0.7 | 0.8 | 6.7
COc1ccc(S(=O)(=O)c2ccc(CNC(=O)c3ccc4nccn4c3)cc2)c(Cl)c1 | 16.7 |  | 11.4 | 
O=C(NCc1ccc(S(=O)(=O)c2cc(F)ccc2CO)cc1)c1cc2ccncc2o1 [N-[(4-{[5-fluoro-2-(hydroxymethyl)benzene]sulfonyl}phenyl)methyl]furo[2,3-c]pyridine-2-carboxamide] |  |  | 67 | 22.9
O=C(NCc1ccc(S(=O)(=O)c2ccc(C(F)(F)F)cc2F)cc1)c1cc2ccncc2s1 |  |  | 42.3 | 20.2

SMILES | IC50 (NAMPT; NAMPT enzymatic reaction) [nM] | IC50 (A2780 cells; SRB assay) [nM] | IC50 (A2780 cells; SRB) [nM] | IC50 (NAMPT; NAMPT enzymatic assay) [nM]
CS(=O)(=O)c1cccc(S(=O)(=O)c2ccc(CNC(=O)c3cc4ccncc4o3)cc2)c1 | 6 |  | 6.8 | 
O=C(NCc1ccc(S(=O)(=O)c2cccc3ccccc23)cc1)c1cc2ccncc2s1 [N-{[4-(naphthalene-1-sulfonyl)phenyl]methyl}thieno[2,3-c]pyridine-2-carboxamide] | 2 | 0.5 |  | 
O=C(NCc1ccc(S(=O)(=O)N2CCCCC2)cc1)c1cc2cnccc2s1 [N-{[4-(piperidine-1-sulfonyl)phenyl]methyl}thieno[3,2-c]pyridine-2-carboxamide] | 886 | 10000 |  | 
COc1c(F)cccc1S(=O)(=O)c1ccc(CNC(=O)c2cnc3nccn3c2)cc1 | 28.9 |  | 100 to 1000 | 
Cc1ncccc1S(=O)(=O)c1ccc(CNC(=O)c2cnc3nccn3c2)cc1 [N-{[4-(2-methylpyridine-3-sulfonyl)phenyl]methyl}imidazo[1,2-a]pyrimidine-6-carboxamide] |  |  | 100 to 1000 | 20.8
CCC[C@@H](O)c1ccc(S(=O)(=O)c2ccc(CNC(=O)c3cnc4nccn4c3)cc2)cc1 |  |  | 14.2 | 4.8
Cc1ccc(S(=O)(=O)c2ccc(CNC(=O)c3ccc4nccn4c3)cc2)c(C)c1 [N-({4-[(2,4-dimethylbenzene)sulfonyl]phenyl}methyl)imidazo[1,2-a]pyridine-6-carboxamide] | 21.6 |  | 32.1 | 
O=C(NCc1ccc(S(=O)(=O)c2c(F)cccc2Cl)cc1)c1ccc2nccn2c1 | 172 |  | 76.6 | 
CCN(CC)C(=O)c1cc(F)cc(S(=O)(=O)c2ccc(CNC(=O)c3cnc4nccn4c3)cc2)c1 [N-[(4-{[3-(diethylcarbamoyl)-5-fluorobenzene]sulfonyl}phenyl)methyl]imidazo[1,2-a]pyrimidine-6-carboxamide] |  |  | 16.8 | 4.7
CN1CCN(c2ccc(S(=O)(=O)c3ccc(CNC(=O)c4cnc5[nH]ncc5c4)cc3)cc2)CC1 |  |  | 1.3 | 4
O=C(NCc1ccc(S(=O)(=O)c2ccc(C(F)(F)F)cc2)cc1)c1cc2cnccc2[nH]1 [N-[(4-{[4-(trifluoromethyl)benzene]sulfonyl}phenyl)methyl]-1H-pyrrolo[3,2-c]pyridine-2-carboxamide] | 24 | 26 |  | 
CCNC(=O)c1ccc(S(=O)(=O)c2ccc(CNC(=O)c3cc4ccncc4s3)cc2)cc1 |  |  | 3.3 | 1.5
Cn1cc(S(=O)(=O)c2ccc(CNC(=O)c3cc4cnccc4[nH]3)cc2)cn1 [N-{[4-(1-methyl-1H-pyrazole-4-sulfonyl)phenyl]methyl}-1H-pyrrolo[3,2-c]pyridine-2-carboxamide] | 48 | 123 |  | 
Cc1cc(S(=O)(=O)c2ccc(CNC(=O)c3ccc4nccn4c3)cc2)c(C)cc1F | 44 |  | 11 | 
COc1cc(C)cc(OC)c1S(=O)(=O)c1ccc(CNC(=O)c2cnc3[nH]ncc3c2)cc1 | 100 to 1000 |  | 100 to 1000 | 
Cc1nc(S(=O)(=O)c2ccc(CNC(=O)c3cc4ccncc4s3)cc2)ccc1F [N-{[4-(5-fluoro-6-methylpyridine-2-sulfonyl)phenyl]methyl}thieno[2,3-c]pyridine-2-carboxamide] |  |  | 7.1 | 8.3
COc1ccc(F)cc1S(=O)(=O)c1ccc(CNC(=O)c2cc3cnccc3[nH]2)cc1 [N-({4-[(5-fluoro-2-methoxybenzene)sulfonyl]phenyl}methyl)-1H-pyrrolo[3,2-c]pyridine-2-carboxamide] | 5 | 3 |  | 
O=C(NCc1ccc(S(=O)(=O)c2ccc(N3CCOCC3)cc2)cc1)c1cnc2nccn2c1 |  |  | 4 | 1.7
CCCOc1ccc(S(=O)(=O)c2ccc(CNC(=O)c3cc4cnccc4[nH]3)cc2)c(C)c1 | 30.5 |  | 22.1 | 
CN(C)C(=O)c1ccccc1S(=O)(=O)c1ccc(CNC(=O)c2cnc3nccn3c2)cc1 [N-[(4-{[2-(dimethylcarbamoyl)benzene]sulfonyl}phenyl)methyl]imidazo[1,2-a]pyrimidine-6-carboxamide] |  |  | 1000 to 10000 | 100 to 1000
CC(C)(C)c1cccc(S(=O)(=O)c2ccc(CNC(=O)c3cnc4nccn4c3)cc2)c1 | < 0.65 |  | 1.2 | 
O=C(NCc1ccc(S(=O)(=O)c2ccc(F)c(C(F)(F)F)c2)cc1)c1ccc2nccn2c1 |  |  | 1.7 | 4
